Where a name gives a salt, the structure may show the parent alone. Read-outs that look alike come from different tables or passages of the source. Values belong to the compound of their own block, whether it stands above or below them.
What was measured:
[1] = system: heart rate, blood pressure, cardiovascular effects of tyramine; details: in vivo; cited from earlier work
[2] = system: MPTP-induced striatal dopamine depletions; assay: Suppression of MPTP-induced dopaminergic toxicity (striatal DA and DOPAC); assay type: in vivo, mice; details: striatum; MPTP-HCl 30 mg/kg s.c. alone
Method: Brains were removed and corpora striata dissected on an ice-cold glass plate and frozen on dry ice. Striatal tissues were homogenized in 0.1 M perchloric acid, and deproteinized aliquots containing dihydroxybenzylamine as an internal standard were assayed for dopamine and its major metabolite 3,4-dihydroxy-phenylacetic acid (DOPAC) using HPLC with electrochemical detection.

[3] = system: rabbit jejunum; assay: Tyramine potentiation in rabbit jejunum preparation
[4] = biological target: T1, MAO-B (Rattus norvegicus, UniProt P19643); assay: Rat brain MAO inhibition by propargylamines (Table IA), MAO-B; assay type: biochemical; parameters: in a rat brain preparation of MAO; from tissue; host or cells: rat brain preparation; details: ratio MAO-A / MAO-B for one epimer
T1 sequence (P19643 1-520): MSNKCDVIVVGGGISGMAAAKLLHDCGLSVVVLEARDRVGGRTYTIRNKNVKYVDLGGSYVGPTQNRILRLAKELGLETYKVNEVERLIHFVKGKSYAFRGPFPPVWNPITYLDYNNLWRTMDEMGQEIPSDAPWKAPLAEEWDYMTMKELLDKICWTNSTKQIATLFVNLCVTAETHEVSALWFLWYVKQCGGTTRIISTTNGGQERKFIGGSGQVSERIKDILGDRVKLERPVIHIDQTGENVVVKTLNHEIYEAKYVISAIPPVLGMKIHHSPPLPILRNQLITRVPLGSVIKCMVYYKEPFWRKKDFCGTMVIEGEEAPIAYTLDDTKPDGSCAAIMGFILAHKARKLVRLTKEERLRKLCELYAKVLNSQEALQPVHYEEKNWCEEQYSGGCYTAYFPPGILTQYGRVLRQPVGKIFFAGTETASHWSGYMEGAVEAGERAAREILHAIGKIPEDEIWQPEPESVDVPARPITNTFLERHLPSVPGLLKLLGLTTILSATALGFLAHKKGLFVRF

[5] = Comparative stability: visual inspection of color and form; assay type: physicochemical
Method: Comparative stability studies were carried out under sets of several accelerating conditions: I) heating at 80°C for 72, 96 or 144 hours; and II) reflux in isopropanol for 30 hours. The degradation products developed were measured by HPLC and confirmed by TLC. The results are presented in Table 9 with the relative retention time (relative to the PAI peak; RRT) as an area percentage relative to total integrated peak area.
The salts were submitted to visual inspection of color and form.

[6] = system: α-MpT-induced hypokinesia; assay: Reversal of α-MpT-induced hypokinesia in rats; assay type: in vivo; details: α-MpT 100 mg/kg i.p. alone
Method: The drug α-MpT is assumed to inhibit the formation of L-DOPA from tyrosine, and consequently the formation of dopamine itself. Lack of CNS dopamine is expressed as hypoactivity. Six month-old male Wistar rats (from Harlan Orkack, UK) were pretreated with saline, [R] […] Two hours later they received i.p. α-MpT at a dose of 100 mg/kg in 0.3-0.5 mL. Controls received saline. Following this, motor activity was recorded in a computerized activity cage for the duration of 10 hours. […] (+)PAI Mesylate at 2 mg/kg.

[7] = system: NMDA-induced cell death of cerebellum cells; assay: cells; details: Rattus norvegicus, 24 h
Method: Procedures: Cultures of mechanically dissociated neonatal rat cerebellum. […] The cerebella are then dissociated after 20-25 passages through a sterile 13 gauge, 10 cm long stainless steel needle attached to a 5 ml syringe with an inserted 45 µm pore size nylon sieve. The dissociated cells are centrifuged at 200g for 5 minutes, the supernatant discarded and the cells resuspended in enriched medium. The cell viability is determined by the trypan blue exclusion test. […] After 4 days in culture, the media are replaced with media containing the desired test compounds. Experiments are done in duplicate and repeated 2 or 3 times. […] Nerve cell survival is evaluated by phase contrast microscopy and trypan blue staining after 24 h.

[8] = system: haloperidol-induced catalepsy
Method: (+)PAI mesylate, or racemic-PAI mesylate. All drugs were administered i.p. in a volume of 0.2 mL. Two hours later, haloperidol was injected s.c. at a dose of 6mg/kg in a volume of 0.1-0.2 mL. Motor coordination tests were made at 3 hours after giving haloperidol, that is, 5 hours after administering the presumed protective drugs.
Motor coordination tests and rigidity were quantified according to three different parameters: (a) ability to walk the length of a horizontal rod, 80 cm-long; (b) ability co climb down, face down, a vertical rod, 80 cm-long; (c) duration of immobility in an unnatural sitting posture whereby the abdomen of the mouse is pressed against a "wall." Full performance as in haloperidol-untreated mice is given the score of 4 in each test, or a total of 12 in all tests. Poor performance is given a score from 1 to 3.

Compound: C#CCNC1CCc2ccccc21 (racemic) [racemic PAI·HCl, Racemic N-propargyl-1-aminoindan hydrochloride]
potentiation of the cardiovascular effects of tyramine [1]: does not potentiate the cardiovascular effects of tyramine

Compound: CN1CC=C(c2ccccc2)CC1 [MPTP, 1-Methyl-phenyl-1,2,3,6-tetrahydropyridine]
DA [2]: 53.1±6.2 ng/mg protein
DOPAC [2]: 3.2±0.3 ng/mg protein

Compound: NC[C@H](O)c1ccc(O)c(O)c1 [Norepiniphrine]
Percent relaxation ([3]; 0.002 µM): 100%

RELATIVE POTENCY A/B [4]: 8.8
Compound: C#CCN(C)C1CCCc2ccccc21 (single isomer, unassigned) [2-MPAI +, N-Methyl-N-propargyl-1-aminotetralin]

appearance ([5]; 80°C/72h): white powder
appearance ([5]; 80°C/144h): white powder
appearance ([5]; reflux in iPrOH/30h): off white powder
Compound: chloride

Compound: CC(N)(Cc1ccc(O)cc1)C(=O)O (stereo not drawn) [α-Mpt, α-methyl-p-tyrosine, reference compound]
% of control [6]: 51%
Score (total motor activity, 10 hours) [6]: 8,108±810

RELATIVE POTENCY A/B [4]: 0.5
Compound: C#CCN(C)C1CCCc2ccccc21 (single isomer, unassigned) [2-MPAI -, N-Methyl-N-propargyl-1-aminotetralin]

RELATIVE POTENCY A/B [4]: 76
Compound: C#CCNC1CCCc2ccccc21 (stereo not shown) [1-PAT S, N-propargyl-1-aminotetralin]

Compound: NCCCNCCCCNCCCN [Spermine, reference compound]
inhibition at 0.01 µM ([7]; read-out: Percent Protection): 65%
viability at 0.01 µM ([7]; read-out: Surviving Cells): 75%

appearance ([5]; 80°C/72h): brownish powder
appearance ([5]; 80°C/144h): brown powder
appearance ([5]; reflux in iPrOH/30h): brown powder
Compound: phosphate

Compound: C#CCNC1CCc2ccccc21 (racemic) [Rac PAI Mesylate, reference compound]
Score+SE ([8]; 5.0 mg/kg i.p., listed as Racemic PAI mesylate): not active

Compound: O=C(CCCN1CCC(O)(c2ccc(Cl)cc2)CC1)c1ccc(F)cc1 [Haloperidol, reference compound]
Score+SE ([8]; haloperidol 6mg/kg s.c. alone, 3 hours after): 6.6±0.3
Score+SE ([8]; haloperidol 6mg/kg s.c. alone, 3 hours after, listed as haloperidol): 6.6±0.03

RELATIVE POTENCY A/B [4]: 10
Compound: C#CCNC1CCCc2ccccc21 (stereo not shown) [1-PAT R, N-propargyl-1-aminotetralin]

Compound: sulphate
appearance ([5]; 80°C/72h): off white powder
appearance ([5]; 80°C/144h): off white powder
appearance ([5]; reflux in iPrOH/30h): brown powder

Compound: NCCc1ccc(O)cc1 [Tyramine]
Percent relaxation ([3]; tyramine alone 40 µM): 0%

— EP0812190B1 (priority 1993, dated 1995)
